For experiment [1], the target named is Phospholipase D2 (Homo sapiens, UniProt O14939). Put plainly: cellular phospholipase D2 inhibition IC50 – cell-based, dose response (AID 602147).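 Note: cellular assay in HEK293 cells overexpressing GFP-tagged PLD2.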 It counts as functional.
Experiment [2] has as its target T1, Phospholipase D1 (Homo sapiens, UniProt Q13393).
T1 sequence (Q13393 whole entry): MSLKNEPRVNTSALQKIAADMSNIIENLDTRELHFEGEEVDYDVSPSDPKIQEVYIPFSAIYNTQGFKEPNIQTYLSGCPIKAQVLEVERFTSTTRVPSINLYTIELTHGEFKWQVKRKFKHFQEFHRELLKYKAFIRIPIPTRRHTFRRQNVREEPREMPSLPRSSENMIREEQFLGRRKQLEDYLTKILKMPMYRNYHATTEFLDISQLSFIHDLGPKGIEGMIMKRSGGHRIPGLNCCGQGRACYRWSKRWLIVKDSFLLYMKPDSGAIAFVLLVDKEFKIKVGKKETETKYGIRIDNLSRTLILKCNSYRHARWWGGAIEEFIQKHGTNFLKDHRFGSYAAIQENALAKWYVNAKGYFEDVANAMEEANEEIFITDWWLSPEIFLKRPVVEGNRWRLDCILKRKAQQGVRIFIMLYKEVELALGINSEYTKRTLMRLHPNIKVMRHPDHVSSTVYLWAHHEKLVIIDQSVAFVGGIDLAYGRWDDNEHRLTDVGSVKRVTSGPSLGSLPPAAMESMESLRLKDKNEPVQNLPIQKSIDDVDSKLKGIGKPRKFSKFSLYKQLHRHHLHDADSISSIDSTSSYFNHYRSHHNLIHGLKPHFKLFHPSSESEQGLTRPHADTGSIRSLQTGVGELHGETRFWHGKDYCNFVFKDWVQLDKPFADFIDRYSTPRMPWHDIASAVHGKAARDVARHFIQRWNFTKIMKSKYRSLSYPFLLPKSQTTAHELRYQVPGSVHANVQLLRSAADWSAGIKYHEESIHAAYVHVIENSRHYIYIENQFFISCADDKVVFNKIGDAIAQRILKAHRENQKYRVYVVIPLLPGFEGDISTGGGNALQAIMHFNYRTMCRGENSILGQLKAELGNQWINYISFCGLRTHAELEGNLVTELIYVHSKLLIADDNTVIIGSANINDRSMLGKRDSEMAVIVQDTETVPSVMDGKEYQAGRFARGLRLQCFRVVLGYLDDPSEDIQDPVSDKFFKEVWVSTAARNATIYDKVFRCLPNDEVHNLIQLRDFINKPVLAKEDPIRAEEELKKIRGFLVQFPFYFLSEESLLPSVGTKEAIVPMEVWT
Put plainly: cellular phospholipase D1 inhibition IC50 – cell-based, dose response (AID 602151).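 Note: cellular PLD1 assay in Calu-1 cells stimulated with PMA.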 It counts as functional.

Experiment [3] relates to HeLa. The experiment can be described thus: ATP-based viability loss in HeLa cells – cell-based, CellTiter-Glo luminescence, cherry-pick samples, cytotoxicity control for MITF activator project, dose response (AID 540259). It counts as functional. As to conditions: Homo sapiens. (ATP-based viability assays read luminescence as a measure of living cells.)
In experiment [4] the test system is Escherichia coli. Put plainly: microbe, parasite or virus in culture.
For experiment [5], the target named is T2, Replicative DNA helicase DnaB (Mycobacterium tuberculosis, UniProt P9WMR3).
T2 sequence (P9WMR3 whole entry): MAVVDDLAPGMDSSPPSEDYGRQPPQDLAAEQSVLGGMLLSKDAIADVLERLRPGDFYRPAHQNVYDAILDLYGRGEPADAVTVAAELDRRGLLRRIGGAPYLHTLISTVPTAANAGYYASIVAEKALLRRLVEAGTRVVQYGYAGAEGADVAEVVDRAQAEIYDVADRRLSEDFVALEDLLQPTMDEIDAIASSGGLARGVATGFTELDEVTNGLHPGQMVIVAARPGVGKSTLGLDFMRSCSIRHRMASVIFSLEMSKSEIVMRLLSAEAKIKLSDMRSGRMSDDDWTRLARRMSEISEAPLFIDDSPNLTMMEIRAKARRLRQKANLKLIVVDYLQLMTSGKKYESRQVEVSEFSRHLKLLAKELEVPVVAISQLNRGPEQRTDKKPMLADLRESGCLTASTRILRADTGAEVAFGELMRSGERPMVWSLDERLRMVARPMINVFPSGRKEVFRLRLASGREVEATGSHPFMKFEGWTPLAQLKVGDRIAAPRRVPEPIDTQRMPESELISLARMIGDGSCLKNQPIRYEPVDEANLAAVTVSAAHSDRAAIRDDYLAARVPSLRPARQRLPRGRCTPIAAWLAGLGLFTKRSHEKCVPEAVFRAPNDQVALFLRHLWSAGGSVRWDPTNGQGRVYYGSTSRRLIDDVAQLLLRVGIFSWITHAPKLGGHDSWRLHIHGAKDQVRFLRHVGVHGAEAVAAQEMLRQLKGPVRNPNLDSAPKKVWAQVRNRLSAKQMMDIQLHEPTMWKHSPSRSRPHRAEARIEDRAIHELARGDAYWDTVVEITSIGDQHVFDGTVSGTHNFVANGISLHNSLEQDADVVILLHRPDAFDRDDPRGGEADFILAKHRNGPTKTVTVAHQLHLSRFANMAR
Put plainly: DnaB intein splicing inhibitors, dose response, biochemical, cell-free fluorescence (AID 449749). It counts as functional.

Experiment [6] concerns the target T3, Protein RecA (Mycobacterium tuberculosis, UniProt P9WHJ3).
T3 sequence (P9WHJ3 whole entry): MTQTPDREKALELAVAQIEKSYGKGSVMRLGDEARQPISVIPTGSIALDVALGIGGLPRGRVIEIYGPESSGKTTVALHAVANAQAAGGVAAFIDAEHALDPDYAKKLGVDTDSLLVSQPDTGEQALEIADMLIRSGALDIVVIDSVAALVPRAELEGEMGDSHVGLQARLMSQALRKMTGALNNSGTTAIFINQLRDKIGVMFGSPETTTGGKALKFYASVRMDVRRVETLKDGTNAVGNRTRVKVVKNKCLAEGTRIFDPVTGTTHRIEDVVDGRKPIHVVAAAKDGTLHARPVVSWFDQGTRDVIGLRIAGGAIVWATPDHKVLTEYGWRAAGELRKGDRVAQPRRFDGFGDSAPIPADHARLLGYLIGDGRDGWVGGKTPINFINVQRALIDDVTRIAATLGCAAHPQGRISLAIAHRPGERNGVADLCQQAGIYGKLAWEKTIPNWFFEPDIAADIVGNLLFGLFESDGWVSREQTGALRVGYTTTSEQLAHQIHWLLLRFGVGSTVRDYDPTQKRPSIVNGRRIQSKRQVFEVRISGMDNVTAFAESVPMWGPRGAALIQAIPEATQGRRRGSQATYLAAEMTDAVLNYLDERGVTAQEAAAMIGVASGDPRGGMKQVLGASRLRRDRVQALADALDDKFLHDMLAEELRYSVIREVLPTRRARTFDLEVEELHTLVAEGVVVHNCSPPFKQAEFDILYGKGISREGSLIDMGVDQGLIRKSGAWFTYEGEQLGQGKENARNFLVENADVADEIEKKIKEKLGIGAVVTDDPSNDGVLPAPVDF
The experiment can be described thus: Fluorescence Cell-Free Homogeneous Dose Retest to Identify Inhibitors of RecA-Intein Splicing Activity. [Related pubchem assays (depositor defined):AID2097, AID2223, AID489010, AID492950]. It counts as functional.

In experiment [7] the target is T4, Apoptotic protease-activating factor 1 (Homo sapiens, UniProt O14727).
T4 sequence (O14727 whole entry): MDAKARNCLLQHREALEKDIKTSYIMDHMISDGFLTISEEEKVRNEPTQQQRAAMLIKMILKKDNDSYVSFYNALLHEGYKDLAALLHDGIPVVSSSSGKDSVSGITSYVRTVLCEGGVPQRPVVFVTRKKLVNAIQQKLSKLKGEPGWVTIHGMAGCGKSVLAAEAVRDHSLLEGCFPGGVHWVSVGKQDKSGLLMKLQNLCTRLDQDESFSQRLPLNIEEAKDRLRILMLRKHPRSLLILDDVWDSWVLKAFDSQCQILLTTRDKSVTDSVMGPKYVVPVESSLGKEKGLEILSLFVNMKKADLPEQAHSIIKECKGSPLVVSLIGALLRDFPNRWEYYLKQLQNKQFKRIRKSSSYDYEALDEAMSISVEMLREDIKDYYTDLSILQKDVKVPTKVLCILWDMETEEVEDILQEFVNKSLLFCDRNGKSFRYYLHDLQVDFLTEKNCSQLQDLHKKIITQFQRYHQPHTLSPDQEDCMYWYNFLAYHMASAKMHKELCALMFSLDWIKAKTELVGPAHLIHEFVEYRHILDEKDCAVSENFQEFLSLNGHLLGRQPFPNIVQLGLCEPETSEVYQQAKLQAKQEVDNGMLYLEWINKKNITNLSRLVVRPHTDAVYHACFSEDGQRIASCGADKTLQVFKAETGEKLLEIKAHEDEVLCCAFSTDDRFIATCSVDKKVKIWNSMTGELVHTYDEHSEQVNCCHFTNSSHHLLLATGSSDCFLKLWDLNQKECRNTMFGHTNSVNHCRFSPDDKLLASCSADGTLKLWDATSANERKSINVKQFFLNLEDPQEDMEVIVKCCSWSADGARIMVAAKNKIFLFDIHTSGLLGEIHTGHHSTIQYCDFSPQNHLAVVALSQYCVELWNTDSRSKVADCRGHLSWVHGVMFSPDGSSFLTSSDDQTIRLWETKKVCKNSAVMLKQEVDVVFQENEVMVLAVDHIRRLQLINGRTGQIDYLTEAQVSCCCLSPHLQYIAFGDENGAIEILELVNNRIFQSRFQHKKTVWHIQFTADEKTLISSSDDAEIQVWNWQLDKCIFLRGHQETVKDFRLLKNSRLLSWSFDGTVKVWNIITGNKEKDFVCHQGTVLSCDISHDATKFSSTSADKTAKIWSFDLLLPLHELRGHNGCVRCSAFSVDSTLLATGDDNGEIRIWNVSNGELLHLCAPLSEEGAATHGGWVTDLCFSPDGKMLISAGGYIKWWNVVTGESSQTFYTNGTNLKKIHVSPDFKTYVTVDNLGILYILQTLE
It counts as functional.

The target in experiment [8] is Glucose-6-phosphate 1-dehydrogenase (Homo sapiens, UniProt P11413). The experiment can be described thus: inhibition of Homo sapiens G6PD, dose series – biochemical, fluorescence, selectivity assay for P. falciparum G6PD inhibitor project, dose response (AID 504792). It counts as functional.
Chain of Glucose-6-phosphate 1-dehydrogenase (P11413 whole entry): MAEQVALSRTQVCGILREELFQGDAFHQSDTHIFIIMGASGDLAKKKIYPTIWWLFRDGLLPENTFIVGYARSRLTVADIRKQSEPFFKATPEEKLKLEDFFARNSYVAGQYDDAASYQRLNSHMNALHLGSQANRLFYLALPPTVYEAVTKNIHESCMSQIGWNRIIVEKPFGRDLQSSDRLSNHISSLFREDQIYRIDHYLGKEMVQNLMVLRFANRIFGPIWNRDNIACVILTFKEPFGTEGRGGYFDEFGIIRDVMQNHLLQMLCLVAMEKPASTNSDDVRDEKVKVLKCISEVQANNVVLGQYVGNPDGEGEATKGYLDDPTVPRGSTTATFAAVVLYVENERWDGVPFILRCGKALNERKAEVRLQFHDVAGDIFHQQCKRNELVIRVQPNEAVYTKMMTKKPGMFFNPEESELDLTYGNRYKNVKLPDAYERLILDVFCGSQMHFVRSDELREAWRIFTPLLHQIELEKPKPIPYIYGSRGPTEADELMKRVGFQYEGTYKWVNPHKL
The subject of experiment [9] is HEK293. Put plainly: cells. As to conditions: Homo sapiens.
Experiment [10] addresses T5, Nucleotide-binding oligomerization domain-containing protein 1 (Homo sapiens, UniProt Q9Y239).
T5 sequence (Q9Y239 whole entry): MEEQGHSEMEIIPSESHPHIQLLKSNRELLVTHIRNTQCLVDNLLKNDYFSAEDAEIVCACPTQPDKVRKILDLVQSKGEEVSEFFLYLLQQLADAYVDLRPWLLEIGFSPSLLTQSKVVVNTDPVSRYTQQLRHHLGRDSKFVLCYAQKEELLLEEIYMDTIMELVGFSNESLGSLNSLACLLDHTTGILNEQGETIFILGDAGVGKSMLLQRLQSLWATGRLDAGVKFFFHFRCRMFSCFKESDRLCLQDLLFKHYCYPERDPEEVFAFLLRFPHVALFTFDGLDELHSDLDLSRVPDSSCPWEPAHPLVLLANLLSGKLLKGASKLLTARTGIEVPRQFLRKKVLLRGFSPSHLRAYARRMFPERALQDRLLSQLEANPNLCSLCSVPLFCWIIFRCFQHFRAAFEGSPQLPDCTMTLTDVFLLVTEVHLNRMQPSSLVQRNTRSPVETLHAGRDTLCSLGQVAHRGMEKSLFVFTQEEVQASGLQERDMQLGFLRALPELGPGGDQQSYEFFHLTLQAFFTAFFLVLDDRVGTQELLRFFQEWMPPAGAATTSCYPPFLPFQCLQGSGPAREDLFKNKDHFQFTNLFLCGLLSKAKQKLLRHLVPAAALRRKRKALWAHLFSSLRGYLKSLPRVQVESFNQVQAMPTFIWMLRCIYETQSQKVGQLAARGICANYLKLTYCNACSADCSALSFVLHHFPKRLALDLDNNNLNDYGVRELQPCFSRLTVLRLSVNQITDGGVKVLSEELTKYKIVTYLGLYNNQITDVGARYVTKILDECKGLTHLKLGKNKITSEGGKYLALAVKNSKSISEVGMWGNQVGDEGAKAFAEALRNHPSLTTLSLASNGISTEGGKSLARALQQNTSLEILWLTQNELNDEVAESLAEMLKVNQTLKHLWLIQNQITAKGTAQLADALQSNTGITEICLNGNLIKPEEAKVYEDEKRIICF
The experiment can be described thus: blockers of NOD1 pathway activity – revised, SAR follow-up (AID 2333). It counts as functional.

The target of experiment [11] is Tumor necrosis factor (Homo sapiens, UniProt P01375). The experiment can be described thus: analog potency on TNFa NF-kB signaling – cell-based, revised, SAR follow-up (AID 2337). It counts as functional.
Chain of Tumor necrosis factor (P01375 whole entry): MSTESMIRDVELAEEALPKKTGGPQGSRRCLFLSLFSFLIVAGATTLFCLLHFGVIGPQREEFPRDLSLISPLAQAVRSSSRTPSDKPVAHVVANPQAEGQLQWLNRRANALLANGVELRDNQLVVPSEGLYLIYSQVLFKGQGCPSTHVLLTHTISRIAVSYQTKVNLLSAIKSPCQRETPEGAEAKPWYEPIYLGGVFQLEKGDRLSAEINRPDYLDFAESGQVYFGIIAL

The values below come from ChEMBL document CHEMBL1201862, “PubChem BioAssay data set” (2004).

The source made the active and inactive calls. Where only a bound is given, the exact number is not on record here.

Chain of Phospholipase D2 (O14939 whole entry): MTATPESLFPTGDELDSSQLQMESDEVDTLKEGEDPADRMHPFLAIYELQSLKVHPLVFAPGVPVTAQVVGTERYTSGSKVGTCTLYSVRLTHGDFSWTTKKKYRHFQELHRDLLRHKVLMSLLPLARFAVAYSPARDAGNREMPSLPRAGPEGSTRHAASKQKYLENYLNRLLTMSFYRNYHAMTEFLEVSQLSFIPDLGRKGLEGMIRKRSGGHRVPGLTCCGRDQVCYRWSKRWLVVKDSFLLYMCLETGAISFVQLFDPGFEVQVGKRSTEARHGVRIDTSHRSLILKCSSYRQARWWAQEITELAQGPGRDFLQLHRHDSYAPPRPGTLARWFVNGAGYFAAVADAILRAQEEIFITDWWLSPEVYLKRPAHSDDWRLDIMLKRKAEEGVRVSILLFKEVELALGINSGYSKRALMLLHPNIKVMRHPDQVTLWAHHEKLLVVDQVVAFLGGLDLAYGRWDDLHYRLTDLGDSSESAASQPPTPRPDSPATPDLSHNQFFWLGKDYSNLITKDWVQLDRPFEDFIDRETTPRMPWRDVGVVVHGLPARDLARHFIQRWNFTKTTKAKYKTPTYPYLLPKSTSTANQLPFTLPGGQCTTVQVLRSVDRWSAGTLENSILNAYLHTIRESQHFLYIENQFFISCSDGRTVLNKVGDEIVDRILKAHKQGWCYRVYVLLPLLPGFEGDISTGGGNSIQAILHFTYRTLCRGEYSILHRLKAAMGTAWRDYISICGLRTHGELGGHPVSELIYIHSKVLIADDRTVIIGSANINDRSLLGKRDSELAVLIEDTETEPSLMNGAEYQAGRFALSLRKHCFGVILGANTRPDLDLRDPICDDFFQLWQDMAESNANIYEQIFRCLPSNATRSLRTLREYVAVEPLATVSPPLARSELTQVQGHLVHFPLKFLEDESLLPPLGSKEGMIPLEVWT

As to `C[C@@H](CN1CC=C(n2c(=O)[nH]c3ccccc32)CC1)NC(=O)c1ccc2ccccc2c1`, the IC50 in experiment [1] is 2.25 µM (active); in experiment [2], 0.05 µM (active). With `CCc1ccc(-c2cn3nc(-c4ccccc4)cnc3n2)cc1`, the AC50 in experiment [3] is 241 µM (active). On to `C[C@H](NC(=O)c1[nH]cnc1C(=O)NCCCCCNC(=O)OC(C)(C)C)c1ccccc1`, for which the AC50 in [4] was 63.8 µM (active). `Cc1ccc(C(=O)N(CCN2CCCCC2)CC2CCCN(C3CCCC3)C2)s1` (configuration not stated): the AC50 in experiment [3] was 72.6 µM (active). Same read-out and setting: for `COc1cccc(C(=O)Nc2ccc(NC(=O)C3CC3)cn2)c1` the value was 122 µM (active). On to `C[C@@H](CN1CCC(n2c(=O)[nH]c3ccccc32)CC1)NC(=O)c1cc2ccccc2s1`, for which the IC50 in experiment [1] was 0.22 µM (active); in experiment [2] it was 0.002 µM (active). Turning to `Nc1ccc(N(CCO)CCO)cc1`, the AC50 in experiment [5] was 256 µM (active). Further, in [6], the concentration for a half-maximal effect (EC50) was > 380 µM (inconclusive). Also, the IC50 in experiment [7] is 88.3 µM (active); in experiment [8], > 80 µM (inactive). Regarding `CC(=O)N1c2ccc(S(=O)(=O)N3CCN(c4ccc(Cl)cc4)CC3)cc2CC1C` (configuration not stated), the IC50 was > 20 µM (inactive) in [9], 2.57 µM (active) in [10] and 5.76 µM (active) in experiment [11].

As to `C[C@@H](CN1CCC(n2c(=O)[nH]c3cc(I)ccc32)CC1)NC(=O)c1ccc2ccccc2c1`, the figures for the IC50 in experiment [1] and in experiment [2] were 6.37 µM (active) and 0.028 µM (active), respectively.

For orientation: IC50 means the point on the concentration scale where inhibition reaches its midpoint. In general, AC50 refers to the concentration at which the activity in the assay is half-maximal. As usually defined, the EC50 is the concentration that produces a half-maximal response.
